For orientation: remaining activity means the share of the control activity or signal that is left under treatment. As usually defined, the Ki is a measure of affinity in units of concentration, obtained from inhibition or displacement.

Data set [1] concerns the target R. etli pyruvate carboxylase (Rhizobium etli, UniProt Q2K340). In words: Pyruvate carboxylase (PC) coupled enzyme assay (Payne and Morris) with E. coli cell extracts. It is filed as biochemical. The settings on record: for effect of nicotinamide nucleotides on pyruvate carboxylase activity: cell-free crude extract from MG1655 pTrc99A-pyc, FIG. 9. The protocol:
Pyruvate carboxylase (PC) enzyme assay. For pyruvate carboxylase activity measurements, 100 mL of mid-log phase culture was harvested by centrifugation at 7,000×g for 15 minutes at 4° C. and washed with 10 mL of 100 mM Tris-Cl (pH 8.0). The cells were then resuspended in 4 mL of 100 mM Tris-Cl (pH 8.0) and subsequently subjected to cell disruption by sonication. The cell debris was removed by centrifugation at 20,000×g for 15 minutes at 4° C. The pyruvate carboxylase activity was measured by the method of Payne and Morris (J. Gen. Microbiol., 59, 97-101 (1969)). In this assay the oxaloacetate produced by pyruvate carboxylase is converted to citrate by the addition of citrate synthase in the presence of acetyl CoA and 5,5-dithio-bis(2-nitro-benzoate) (DTNB) (Aldrich Chemical Co.); the homotetramer pyruvate carboxylase enzyme from R. etli requires acetyl coenzyme A for activation. The rate of increase in absorbence at 412 nm due to the presence of CoA-dependent formation of the 5-thio-2-nitrobenzoate was monitored, first after the addition of pyruvate and then after the addition of ATP. The difference between these two rates was taken as the ATP-dependent pyruvate carboxylase activity. The concentration of reaction components per milliliter of mixture was as follows: 100 mM Tris-Cl (pH 8.0), 5 mM MgCl2.H2O, 50 mM Na HCO3, 0.1 mM acetyl CoA, 0.25 mM DTNB, and 5 units (U) of citrate synthase. Pyruvate, ATP, ADP, or aspartate, were added as specified in the Results section, below. The reaction was started by adding 50 μl of cell extract. One unit of pyruvate carboxylase activity corresponds to the formation of 1 μmol of 5-thio-2-nitrobenzoate per mg of protein per minute. All enzyme assays were performed in triplicate and a standard error of less then 10% was observed. The total protein in the cell extracts was determined by the Lowry method (O. Lowry et al., J. Biol. Chem., 193, 265-275 (1951)).
R. etli pyruvate carboxylase can convert pyruvate to oxaloacetate in E. coli. To confirm that the expressed pyruvate carboxylase protein was enzymatically active in E. coli, the coupled enzyme assay developed by Payne and Morris was employed to assess pyruvate carboxylase activity (J. Payne et al., J. Gen. Microbiol., 59, 97-101 (1969)). Cell extracts containing the induced pUC18-pyc construct (MG1655 pUC18-pyc) were tested for pyruvate carboxylase activity using varying amounts of pyruvate, and compared to controls containing the pUC18 construct (MG1655 pUC18). ATP was added at a final concentration of 5 mM to the reaction mixture and pyruvate carboxylase activity was determined in the presence of increasing amounts of pyruvate. […] This value is in excellent agreement with other pyruvate carboxylase enzymes that have been studied (H. Feir et al., Can. J. Biochem., 47, 698-710 (1969); H. Modak et al., Microbiol., 141, 2619-2628 (1995); M. Scrutton et al., Arch. Biochem. Biophys., 164, 641-654 (1974)).
It is well documented that the α4 pyruvate carboxylase enzymes can be inhibited by either aspartate or adenosine diphosphate (ADP). Aspartate is the first amino acid that is synthesized from oxaloacetate and ADP is liberated when pyruvate carboxylase converts pyruvate to oxaloacetate. Pyruvate carboxylase activity in the presence of each of these inhibitors was evaluated using extracts of MG1655 cells that contained the pUC18-pyc construct. The effect of aspartate was analyzed by adding ATP and pyruvate to the reaction mixture to final concentrations of 5 mM and 6 mM, respectively, then determining pyruvate carboxylase activity in the presence of increasing amounts of aspartate. […] As expected, the pyruvate carboxylase activity was inhibited by aspartate and the specific activity decreased to approximately 43% in the presence of 8 mM aspartate. The effect of ADP was analyzed by adding pyruvate to the reaction mixture to a final concentration of 5 mM, then determining pyruvate carboxylase activity in the presence of increasing amounts of […]. […]

The test system of data set [2] is biotinylated R. etli pyruvate carboxylase expressed in E. coli. In words: Western blot of in vivo biotinylated pyruvate carboxylase in MG1655 pUC18-pyc cells grown with varying biotin. The settings on record: M9 media, 37° C., mid-log. The data set is classed as cell-based. The protocol: Protein gels and Western blotting. Heat-denatured cell extracts were separated on 10% SDS-PAGE gels as per Altman et. al. (J. Bact., 155, 1130-1137 (1983)) and Western blots were carried out as per Carroll and Gherardini (Infect. Immun., 64, 392-398 (1996)). ALS225 E. coli cells containing either pUC18 or pUC18-pyc were grown to mid-log in rich media at 37° C. both in the presence and absence of IPTG. Because ALS225 contains lacIq1 on the F′, significant induction of the pUC18-pyc construct should not occur unless IPTG is added. Protein extracts were prepared, subjected to SDS PAGE, and Western blotted. Proteins which had been biotinylated in vivo were then detected using the Sigma-Blot protein detection kit (Sigma Chemical Corp., St. Louis, Mo.). The instructions of the manufacturer were followed except that during the development of the western blots the protein biotinylation step was omitted, thus allowing for the detection of only those proteins which had been biotinylated in vivo.
Effects of biotin and biotin holoenzyme synthase on the expression of biotinylated R. etli pyruvate carboxylase in E. coli. […] Proteins which had been biotinylated in vivo were then detected using the Sigma-Blot protein detection kit, as described above. […] The amount of biotinylated pyruvate carboxylase that was present in each sample was quantitated using a Stratagene Eagle Eye II Still Video. […]
For orientation: Immunoblotting shows a protein as a band on a membrane.

Substrate in data set [3]: CC(=O)C(=O)O
In words: Pyruvate carboxylase (PC) coupled enzyme assay (Payne and Morris) with E. coli cell extracts. It is filed as biochemical, R. etli. The settings on record: other: MG1655 pUC18-pyc extract; ATP 5 mM; Lineweaver-Burke plot; pH 8.0. The protocol:
Pyruvate carboxylase (PC) enzyme assay. For pyruvate carboxylase activity measurements, 100 mL of mid-log phase culture was harvested by centrifugation at 7,000×g for 15 minutes at 4° C. and washed with 10 mL of 100 mM Tris-Cl (pH 8.0). The cells were then resuspended in 4 mL of 100 mM Tris-Cl (pH 8.0) and subsequently subjected to cell disruption by sonication. The cell debris was removed by centrifugation at 20,000×g for 15 minutes at 4° C. The pyruvate carboxylase activity was measured by the method of Payne and Morris (J. Gen. Microbiol., 59, 97-101 (1969)). […] The rate of increase in absorbence at 412 nm due to the presence of CoA-dependent formation of the 5-thio-2-nitrobenzoate was monitored, first after the addition of pyruvate and then after the addition of ATP. […] The total protein in the cell extracts was determined by the Lowry method (O. Lowry et al., J. Biol. Chem., 193, 265-275 (1951)).
R. etli pyruvate carboxylase can convert pyruvate to oxaloacetate in E. coli. […] ATP was added at a final concentration of 5 mM to the reaction mixture and pyruvate carboxylase activity was determined in the presence of increasing amounts of pyruvate. […]

In the case of `NC(=O)C1=CN([C@@H]2O[C@H](COP(=O)(O)OP(=O)(O)OC[C@H]3O[C@@H](n4cnc5c(N)ncnc54)[C@H](OP(=O)(O)O)[C@@H]3O)[C@@H](O)[C@H]2O)C=CC1` [NADPH], in data set [1], the “effect of nicotinamide nucleotides on pyruvate carboxylase activity” value (from here on “effect of nicotinamide nucleotides”) is “did not”.
The same measure, in the same setting: the value for `NC(=O)c1ccc[n+]([C@@H]2O[C@H](COP(=O)([O-])OP(=O)(O)OC[C@H]3O[C@@H](n4cnc5c(N)ncnc54)[C@H](O)[C@@H]3O)[C@@H](O)[C@H]2O)c1` [NAD+] was “did not”.
As for `N[C@@H](CC(=O)O)C(=O)O` [aspartate], the remaining activity at 8000 µM in data set [1] (read-out: pyruvate carboxylase specific activity remaining) is ~43%.
With `NC(=O)C1=CN([C@@H]2O[C@H](COP(=O)(O)OP(=O)(O)OC[C@H]3O[C@@H](n4cnc5c(N)ncnc54)[C@H](O)[C@@H]3O)[C@@H](O)[C@H]2O)C=CC1` [NADH, reduced nicotinamide adenine dinucleotide], in data set [1], the “effect of nicotinamide nucleotides” value is on record as “inhibited pyruvate carboxylase”.
As for `Nc1ncnc2c1ncn2[C@@H]1O[C@H](COP(=O)(O)OP(=O)(O)O)[C@@H](O)[C@H]1O` [ADP, adenosine diphosphate], the Ki in data set [1] turned out to be 142 µM. In addition, in data set [1] (MG1655 pUC18-pyc extract, pyruvate 5 mM, increasing ATP), the “mode of inhibition of pyruvate carboxylase” value is reported as “competitive inhibitor of ATP”.
As to `NC(=O)c1ccc[n+]([C@@H]2O[C@H](COP(=O)([O-])OP(=O)(O)OC[C@H]3O[C@@H](n4cnc5c(N)ncnc54)[C@H](OP(=O)(O)O)[C@@H]3O)[C@@H](O)[C@H]2O)c1` [NADP+], in data set [1], the “effect of nicotinamide nucleotides” value was “did not”.
Regarding `O=C(O)CCCC[C@@H]1SC[C@@H]2NC(=O)N[C@@H]21` [biotin], in data set [2], the “biotin concentration sufficient to biotinylate all of the expressed pyruvate carboxylase” value was found to be 50 ng/mL.
`Nc1ncnc2c1ncn2[C@@H]1O[C@H](COP(=O)(O)OP(=O)(O)OP(=O)(O)O)[C@@H](O)[C@H]1O` [ATP]: the Km in data set [1] (MG1655 pUC18-pyc extract, pyruvate 5 mM, Lineweaver-Burke plot, read-out: saturation constant (Km) for expressed pyruvate carboxylase with respect to ATP) amounted to 193 µM.

B1: R. etli pyruvate carboxylase (Rhizobium etli CFN 42) (protein)
chain: MPISKILVANRSEIAIRVFRAANELGIKTVAIWAEEDKLALHRFKADESYQVGRGPHLARDLGPIESYLSIDEVIRVAKLSGADAIHPGYGLLSESPEFVDACNKAGIIFIGPKADTMRQLGNKVAARNLAISVGVPVVPATEPLPDDMAEVAKMAAAIGYPVMLKASWGGGGRGMRVIRSEADLAKEVTEAKREAMAAFGKDEVYLEKLVERARHVESQILGDTHGNVVHLFERDCSVQRRNQKVVERAPAPYLSEAQRQELAAYSLKIAGATNYIGAGTVEYLMDADTGKFYFIEVNPRIQVEHTVTEVVTGIDIVKAQIHILDGAAIGTPQSGVPNQEDIRLNGHALQCRVTTEDPEHNFIPDYGRITAYRSASGFGIRLDGGTSYSGAIITRYYDPLLVKVTAWAPNPLEAISRMDRALREFRIRGVATNLTFLEAIIGHPKFRDNSYTTRFIDTTPELFQQVKRQDRATKLLTYLADVTVNGHPEAKDRPKPLENAARPVVPYANGNGVKDGTKQLLDTLGPKKFGEWMRNEKRVLLTDTTMRDGHQSLLATRMRTYDIARIAGTYSHALPNLLSLECWGGATFDVSMRFLTEDPWERLALIREGAPNLLLQMLLRGANGVGYTNYPDNVVKYFVRQAAKGGIDLFRVFDCLNWVENMRVSMDAIAEENKLCEAAICYTGDILNSARPKYDLKYYTNLAVELEKAGAHIIAVKDMAGLLKPAAAKVLFKALREATGLPIHFHTHDTSGIAAATVLAAVEAGVDAVDAAMDALSGNTSQPCLGSIVEALSGSERDPGLDPAWIRRISFYWEAVRNQYAAFESDLKGPASEVYLHEMPGGQFTNLKEQARSLGLETRWHQVAQAYADANQMFGDIVKVTPSSKVVGDMALMMVSQDLTVADVVSPDREVSFPESVVSMLKGDLGQPPSGWPEALQKKALKGEKPYTVRPGSLLKEADLDAERKVIEKKLEREVSDFEFASYLMYPKVFTDFALASDTYGPVSVLPTPAYFYGLADGEELFADIEKGKTLVIVNQAVSATDSQGMVTVFFELNGQPRRIKVPDRAHGATGAAVRRKAEPGNAAHVGAPMPGVISRVFVSSGQAVNAGDVLVSIEAMKMETAIHAEKDGTIAEVLVKAGDQIDAKDLLAVYGG
On to B1, for which, in data set [3], the Km turned out to be 249 µM.

The values above are taken from US6455284B1, “Metabolically engineered E. coli for enhanced production of oxaloacetate-derived biochemicals” (The University of Georgia Research Foundation, Inc., priority 1998, dated 2002).
